Measured values published in article PMC9475448, “What a difference a methylene makes: replacing Glu with Asp or Aad in the Lys-urea-Glu pharmacophore of PSMA-targeting radioligands to reduce kidney and salivary gland uptake” (Theranostics, 2022).

How the values were obtained:
[1] = tested on: mouse kidneys and salivary glands; experiment: Biodistribution of previously reported [68Ga]Ga-HTK03041 in mice; format: in vivo; settings: 1h post-injection, unreported data of the earlier study
[2] = tested on: mouse kidneys and salivary glands; parameters: method as in PMID 32859704; settings: 1h post-injection; cited from earlier work
[3] = target: T1, PSMA (Homo sapiens, UniProt Q04609); parameters: method as in PMID 30251544; settings: same assay conditions, reported previously; cited from earlier work
T1 construct: LNCaP cells (400,000/well) were plated onto a 24-well poly-D-lysine coated plate for 48 h; endogenous in cells; host or cells: LNCaP prostate cancer cells
T1 sequence (Q04609 whole entry): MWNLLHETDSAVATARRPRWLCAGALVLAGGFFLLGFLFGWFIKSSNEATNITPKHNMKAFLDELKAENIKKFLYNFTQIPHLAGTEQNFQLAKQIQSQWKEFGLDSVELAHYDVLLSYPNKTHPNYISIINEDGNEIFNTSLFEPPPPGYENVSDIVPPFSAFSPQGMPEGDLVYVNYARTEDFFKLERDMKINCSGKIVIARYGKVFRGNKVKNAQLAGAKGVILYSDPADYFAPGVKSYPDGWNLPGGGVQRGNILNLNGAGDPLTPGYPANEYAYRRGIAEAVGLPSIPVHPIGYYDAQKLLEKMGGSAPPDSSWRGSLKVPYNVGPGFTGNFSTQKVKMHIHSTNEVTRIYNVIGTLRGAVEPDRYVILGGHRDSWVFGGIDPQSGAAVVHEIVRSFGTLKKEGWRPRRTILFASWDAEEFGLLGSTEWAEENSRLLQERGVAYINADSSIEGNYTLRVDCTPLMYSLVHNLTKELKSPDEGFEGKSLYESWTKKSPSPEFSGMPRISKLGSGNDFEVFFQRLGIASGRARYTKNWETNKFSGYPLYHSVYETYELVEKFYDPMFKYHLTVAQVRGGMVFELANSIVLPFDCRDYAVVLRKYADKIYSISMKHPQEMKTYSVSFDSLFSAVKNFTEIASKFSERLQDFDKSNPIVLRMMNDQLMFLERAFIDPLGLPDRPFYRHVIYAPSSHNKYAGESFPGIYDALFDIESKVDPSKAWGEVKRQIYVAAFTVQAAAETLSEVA

| Structure (SMILES) | Salivary gland uptake [1] [%IA/g] | Kidney uptake [2] [%IA/g] | Ki [3] [nM] |
| --- | --- | --- | --- |
| O=C([O-])CN1CCN(CC(=O)[O-])CCN(CC(=O)NCC2CCC(C(=O)NC(Cc3c4ccccc4cc4ccccc34)C(=O)NCCCCC(NC(=O)NC(CCC(=O)O)C(=O)O)C(=O)O)CC2)CCN(CC(=O)[O-])CC1.[68Ga+3] (stereo not drawn) [[^68Ga]Ga-HTK03041] | 4.99±0.88 | 170±26.4 | – |
| O=C([O-])CN1CCN(CC(=O)[O-])CCN(CC(=O)NCC2CCC(C(=O)N[C@@H](Cc3ccc4ccccc4c3)C(=O)NCCCC[C@H](NC(=O)N[C@@H](CCC(=O)O)C(=O)O)C(=O)O)CC2)CCN(CC(=O)[O-])CC1.[Lu+3] (stereo partly drawn) [Lu-PSMA-617] | – | – | 0.24 ± 0.06 |
